Results as given in patent EP0739894A1, “THIAZOLINE DERIVATIVE” (TAISHO PHARMACEUTICAL CO. LTD, priority 1994, dated 1995).
In brackets after ≈: the same amount, converted by molar mass.

What was measured:
blood platelet = assay: Human in vitro blood platelet aggregation inhibition test (ADP-induced, PRP); assay type: cell-based; conditions: 0.05 h
Protocol: Citrated blood (the volume ratio of 3.13 % sodium citrate solution and blood is 1:9) was collected from the cubital vein of a healthy human who had not received any drugs known to affect the function of blood platelet within 2 weeks prior to starting the test, and centrifuged at 120 x g at room temperature for 15 minutes. The resulting supernatant was separated to give platelet rich plasma (PRP), the remaining precipitate was further centrifuged at 1500 x g for 10 minutes, and the resulting supernatant was separated to give platelet poor plasma (PPP).
The blood platelet counts of PRP were adjusted to 50 ∼ 60 × 10^4/µl by diluting with PPP.
Blood platelet aggregation was determined according to the method of Born G.V.R., [Nature, vol. 194, page 927 (1962)] using adenosine diphosphate (produced by Sigma Co.; hereinafter referred to as "ADP") as an aggregation-inducing substance. That is, a solution of the compound of Formula (I) as a test drug in dimethyl sulfoxide was adjusted to the desired concentration with a physiological saline solution. 25 µl of the solution was added to 250 µl of PRP and incubated at 37°C for 3 minutes, and 25 µl of ADP (final concentration : 7 µM) was added thereto. […]

[1] = Solubility test in Britton-Robinson buffered solution, HPLC; assay type: physicochemical; conditions: britton-robinson buffer, aqueous buffer; Britton - Robinson broad buffered solution pH 4, ionic strength 0.125, 25°C
Protocol: (§1) Solubility and stability tests were carried out according to the method of R.H. Blythe et al [J. Pharm. Sci., vol. 66, page 785 (1977)].
A Britton - Robinson broad buffered solution (pH 4) was prepared, and adjusted to 0.125 of the ionic strength by adding sodium chloride. An excess amount of Compound 3 was added to the resulting solution and dissolved with heating, and then after stirring at 25°C for a desired time, the solubility which became constant was measured by HPLC under the following conditions. • Column : TSK-Gel, ODS-80TM, 4φ × 150 mm • Column temperature : 50°C • Mobile phase : Water : CH3CN : SDS : phosphoric acid = 500:500:3:1 • Detection wave length : 246 nm • Flow rate : 1.0 ml/min. • Injection amount : 10 µl

[2] = Stability test in phosphate buffer, decomposition rate constants extrapolated to 25°C; assay type: physicochemical; conditions: phosphate buffer adjusted to pH 4.0, 20 µg/ml; estimated from rate constants of decomposition at 100°C and 65°C
Protocol: as §1
A phosphate buffer (pH 7) (0.1M disodium hydrogenphosphate + 0.1M sodium dihydrogenphosphate) was prepared, and adjusted to pH 4.0 with phosphoric acid. Compound 3 was added to the buffered solution at the concentration of 20 µg/ml, and which was used as a test solution. The content of Compound 3 in the test solution stored at 100°C and 65°C respectively was determined, and the rate constant of decomposition at each temperature was calculated. As a result, it was estimated that the term for remaining a 95% content of Compound 3 at 25°C was 17.6 years.

Compound: Cc1c(C(=O)NCCC(=O)O)sc(=NC(=O)c2ccc(C(=N)N3CCN(c4ccccn4)CC3)cc2)n1C [Compound 3, N-(2-Carboxyethyl)-2-{4-[4-(pyridin-2-yl)piperadinylimidoyl]benzoylimino}-3,4-dimethyl-3H-thiazoline-5-carboxamide]
- IC50 (blood platelet): 21.5 nM
- solubility [1]: 4300 µg/mL (≈ 8.03 mM)
- term for remaining a 95% content at 25°C [2]: 17.6 years
